Data taken from paper PMC8073686, “Characterization of Subtype Selective Cannabinoid CB2 Receptor Agonists as Potential Anti-Inflammatory Agents” (Pharmaceuticals, 2021).

How the values were obtained:
[1] = test system: IL-2 mRNA in Jurkat cells; assay: PHA/PMA-induced IL-2 mRNA in Jurkat cells (RT-PCR); type: cell-based, human
Description: Activation of CB2 is known to have anti-inflammatory effects. There are some studies reporting that CB2 agonists decrease cytokine production in immune cells. We also reported that the cannabinoid receptor agonist CP55,940 and ABK5 inhibit cytokine production in the human T cell lines Jurkat and MOLT-4 [24]. Since ABK5-1 and 5-2 were confirmed to be CB2-subtype selective agonists, we were interested to determine whether these compounds also have anti-inflammatory effects. Note, although ABK5-6 had marginally better binding affinity to CB2, it bound to CB1 […] (i.e., micromolar range). Therefore ABK5-6 was not selected for further evaluations. We first tested the change of IL-2 and TNF-α mRNA levels in Jurkat cells. […] To test if these mRNA changes are reflected in the protein levels of cytokines, the IL-2 and TNF-α concentration in the cell culture medium were measured by ELISA. […] Unlike ABK5-1, at 3 h of treatment, the lowest concentration of ABK5-2 used caused the IL-2 mRNA decrease. […] On the other hand, TNF-α mRNA decreased by 45% at 10 μM ABK5-2 after 3 h of treatment (Figure 4E, black columns). […] These mRNA level changes were similar to that of ABK5-1, except ABK5-2 caused a stronger inhibitory effect on expression of TNF-α mRNA. […] Consistent with the mRNA levels, the inhibitory effect of ABK5-2 on TNF-α production was stronger than that of ABK5-1.
Figure 4 Effect of ABK5-1 and ABK5-2 on phytohemagglutinin (PHA)/phorbol 12-myristate 13-acetate (PMA)-induced cytokine production in T cells. Jurkat cells were pretreated with DMSO (<0.1%; indicated as 0 μM) or various concentrations of ABK5-1 (A–D) or ABK5-2 (E–H) and stimulated with PHA and PMA. IL-2 and TNF-α mRNA levels were determined by real-time PCR (RT-PCR) after ABK5-1 treatment and (A) 3 h and (B) 24 h of PHA/PMA (phytohemagglutinin/phorbol 12-myristate 13-acetate) stimulation. Protein levels of (C) IL-2 and (D) TNF-α were also examined after 24 h of stimulation. IL-2 and TNF-α mRNA were also examined after ABK5-2 treatment and (E) 3 h and (F) 24 h of stimulation, and protein levels of (G) IL-2 and (H) TNF-α were measured after 24 h stimulation. Results are indicated as the mean ± S.D. of three independent assays performed in triplicate for each concentration. One-way ANOVA and Dunnett’s post-hoc test were used and * p < 0.05, ** p < 0.01, *** p < 0.005, **** p < 0.0001 (versus reference).
For cytokine analysis, 0.75 × 10^6 Jurkat cells per well were seeded in 12-well cell culture plates and treated with compounds at a concentration between 0.1 to 10 μM and incubated for 30 min at 37 °C. Then cells were stimulated for cytokine production with PHA (1 μg/mL) and PMA (12.5 ng/mL), for 3 and 24 h. After stimulation, cells were harvested for RNA analysis and the culture supernatant was used for measurement of IL-2 and TNF-α concentrations by human IL-2 and TNF-α ELISA kits (Thermo Fisher Scientific; Waltham, MA, USA) according to the manufacturer instructions.
Jurkat cells were lysed and total RNA was extracted using TRIzol Reagent (Life Technologies, Carlsbad, CA, USA) followed by reverse transcription by a High-Capacity cDNA Reverse Transcription kit (Life Technologies, Carlsbad, CA, USA) according to the manufacturer’s instructions. Quantitative real-time PCR was performed using an Applied Biosystems 7500 Fast Real-Time PCR system in a 10 μL reaction volume containing 2 μL diluted cDNA and 0.5 μM each of forward and reverse primers, and PowerUp SYBR Green Master Mix (Life Technologies, Carlsbad, CA, USA). Primers used in the reaction were as follows: human 36B4 forward, 5′-[…]-3′, and human 36B4 reverse, 5′-[…]-3′, and human IL-2 forward, 5′-[…]-3′, and human IL-2 reverse, 5′-[…]-3′, and human TNF-α forward, 5′-[…]′, human TNF-α reverse, 5′-[…]-3′. The PCR cycles are as follows: 50 °C for 2 min, 95 °C for 2 min, 40 cycles of 95 °C for 3 sec and 60 °C for 30 s. […]

[2] = test system: IL-2 production in Jurkat cells; assay: PHA/PMA-induced IL-2 production in Jurkat cells (ELISA of culture medium); type: cell-based, human; settings: 10 μM, 24 h
Description: Activation of CB2 is known to have anti-inflammatory effects. There are some studies reporting that CB2 agonists decrease cytokine production in immune cells. We also reported that the cannabinoid receptor agonist CP55,940 and ABK5 inhibit cytokine production in the human T cell lines Jurkat and MOLT-4 [24]. Since ABK5-1 and 5-2 were confirmed to be CB2-subtype selective agonists, we were interested to determine whether these compounds also have anti-inflammatory effects. Note, although ABK5-6 had marginally better binding affinity to CB2, it bound to CB1 very, very weakly (i.e., micromolar range). Therefore ABK5-6 was not selected for further evaluations. […] To test if these mRNA changes are reflected in the protein levels of cytokines, the IL-2 and TNF-α concentration in the cell culture medium were measured by ELISA. […]
Figure 4 Effect of ABK5-1 and ABK5-2 on phytohemagglutinin (PHA)/phorbol 12-myristate 13-acetate (PMA)-induced cytokine production in T cells. […] IL-2 and TNF-α mRNA levels were determined by real-time PCR (RT-PCR) after ABK5-1 treatment and (A) 3 h and (B) 24 h of PHA/PMA (phytohemagglutinin/phorbol 12-myristate 13-acetate) stimulation. […] IL-2 and TNF-α mRNA were also examined after ABK5-2 treatment and (E) 3 h and (F) 24 h of stimulation, and protein levels of (G) IL-2 and (H) TNF-α were measured after 24 h stimulation. […]

[3] = 0.1 μM, 3 h PHA/PMA stimulation

SMILES	decrease of IL-2 mRNA [1, 3]	decrease of IL-2 mRNA ([1]; 1 μM, 3 h PHA/PMA stimulation)	decrease of IL-2 mRNA ([1]; 10 μM, 3 h PHA/PMA stimulation) [%]	decrease of IL-2 mRNA ([1]; 10 μM, 24 h)	decrease of IL-2 production (protein, ELISA) [2]	decrease of IL-2 mRNA ([1]; 1 μM, 24 h)
CCOC(=O)c1ccccc1NC(=O)CN(c1c(C)cccc1C)S(=O)(=O)c1ccccc1 [ABK5-2]	about 20%	~15%	~46	about 65%	about 42%	–
CCOC(=O)c1ccccc1NC(=O)CN(c1ccc(C)cc1C)S(=O)(=O)c1ccccc1 [ABK5-1]	did not show a significant decrease	about 17%	~46	~67%	about 42%	about 14%
